{"source": "paper doi:10.1101/2023.10.20.563248v1", "about": "(biorxiv, 2023)", "details_in_all_cases": "1 µM; inhibitor", "key": {"[1]": {"biological_target": "ABL2 (Homo sapiens, UniProt P42684)"}, "[2]": {"biological_target": "GSK3A (Homo sapiens, UniProt P49840)", "sequence (P49840 whole entry)": "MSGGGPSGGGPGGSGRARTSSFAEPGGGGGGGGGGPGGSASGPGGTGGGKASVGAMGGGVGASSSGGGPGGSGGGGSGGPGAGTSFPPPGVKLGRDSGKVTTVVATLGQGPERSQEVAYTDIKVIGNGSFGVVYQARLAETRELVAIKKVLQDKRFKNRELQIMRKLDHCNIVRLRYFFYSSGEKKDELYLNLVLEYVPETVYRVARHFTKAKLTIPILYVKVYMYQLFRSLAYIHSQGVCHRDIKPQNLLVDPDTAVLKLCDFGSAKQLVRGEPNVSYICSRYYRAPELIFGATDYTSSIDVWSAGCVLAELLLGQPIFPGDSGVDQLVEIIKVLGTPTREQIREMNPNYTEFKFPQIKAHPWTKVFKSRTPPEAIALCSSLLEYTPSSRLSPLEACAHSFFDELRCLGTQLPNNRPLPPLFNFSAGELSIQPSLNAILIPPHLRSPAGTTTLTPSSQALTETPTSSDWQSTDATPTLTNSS"}, "[3]": {"biological_target": "AurA (Homo sapiens, UniProt O14965)"}, "[4]": {"biological_target": "NEK9 (Homo sapiens, UniProt Q8TD19)"}, "[5]": {"biological_target": "CAMK2A (Homo sapiens, UniProt Q9UQM7)"}, "[6]": {"biological_target": "p38a (Homo sapiens, UniProt Q16539)", "sequence (Q16539 whole entry)": "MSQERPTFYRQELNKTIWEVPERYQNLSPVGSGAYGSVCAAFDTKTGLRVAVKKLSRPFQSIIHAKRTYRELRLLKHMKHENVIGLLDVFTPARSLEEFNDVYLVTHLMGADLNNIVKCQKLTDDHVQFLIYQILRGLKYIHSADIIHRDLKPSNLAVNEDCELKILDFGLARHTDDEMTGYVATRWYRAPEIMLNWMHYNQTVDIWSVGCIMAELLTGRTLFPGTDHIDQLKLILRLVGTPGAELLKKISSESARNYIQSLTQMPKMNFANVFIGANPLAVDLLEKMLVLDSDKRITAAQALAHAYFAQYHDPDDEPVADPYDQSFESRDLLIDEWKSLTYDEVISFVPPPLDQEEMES"}, "[7]": {"biological_target": "PKCnu (Homo sapiens, UniProt O94806)"}, "[8]": {"biological_target": "FGFR4 (Homo sapiens, UniProt P22455)", "sequence (P22455 whole entry)": "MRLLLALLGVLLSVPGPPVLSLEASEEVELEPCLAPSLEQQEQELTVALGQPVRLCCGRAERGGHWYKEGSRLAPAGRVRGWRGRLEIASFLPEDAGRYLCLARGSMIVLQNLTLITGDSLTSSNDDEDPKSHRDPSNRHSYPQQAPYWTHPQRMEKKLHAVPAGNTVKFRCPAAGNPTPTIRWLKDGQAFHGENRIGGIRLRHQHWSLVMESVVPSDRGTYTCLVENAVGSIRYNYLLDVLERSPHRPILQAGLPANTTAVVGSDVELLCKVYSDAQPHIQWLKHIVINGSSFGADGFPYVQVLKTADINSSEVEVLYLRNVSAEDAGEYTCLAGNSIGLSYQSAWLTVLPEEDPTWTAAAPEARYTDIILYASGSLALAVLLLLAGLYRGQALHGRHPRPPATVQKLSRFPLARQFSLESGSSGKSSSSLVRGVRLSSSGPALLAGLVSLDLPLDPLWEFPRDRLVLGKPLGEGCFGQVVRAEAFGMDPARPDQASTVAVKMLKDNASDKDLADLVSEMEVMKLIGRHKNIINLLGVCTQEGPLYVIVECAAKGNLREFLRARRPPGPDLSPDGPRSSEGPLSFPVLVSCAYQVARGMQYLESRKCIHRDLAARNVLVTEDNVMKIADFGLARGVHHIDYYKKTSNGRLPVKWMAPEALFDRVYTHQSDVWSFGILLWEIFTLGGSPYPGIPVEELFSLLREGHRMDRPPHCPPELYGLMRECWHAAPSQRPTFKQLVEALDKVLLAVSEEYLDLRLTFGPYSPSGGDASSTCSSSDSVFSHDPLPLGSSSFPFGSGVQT"}, "[9]": {"biological_target": "NLK (Homo sapiens, UniProt Q9UBE8)"}, "[10]": {"biological_target": "GRK3 (Homo sapiens, UniProt P35626)"}, "[11]": {"biological_target": "CDK20 (Homo sapiens, UniProt Q8IZL9)", "sequence (Q8IZL9 whole entry)": "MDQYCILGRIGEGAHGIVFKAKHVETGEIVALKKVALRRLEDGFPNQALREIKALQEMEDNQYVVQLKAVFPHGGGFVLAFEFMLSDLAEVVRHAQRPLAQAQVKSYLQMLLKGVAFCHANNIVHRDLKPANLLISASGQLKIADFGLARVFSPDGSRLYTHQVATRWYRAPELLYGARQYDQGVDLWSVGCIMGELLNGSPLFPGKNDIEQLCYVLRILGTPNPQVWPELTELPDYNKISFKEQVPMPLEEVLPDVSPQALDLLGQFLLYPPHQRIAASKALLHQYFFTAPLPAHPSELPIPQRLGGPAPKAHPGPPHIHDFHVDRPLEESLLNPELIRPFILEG"}, "[12]": {"biological_target": "CDK1/CycA2 (Homo sapiens, UniProt P06493)"}, "[13]": {"biological_target": "EPHA2 (Homo sapiens, UniProt P29317)", "sequence (P29317 whole entry)": "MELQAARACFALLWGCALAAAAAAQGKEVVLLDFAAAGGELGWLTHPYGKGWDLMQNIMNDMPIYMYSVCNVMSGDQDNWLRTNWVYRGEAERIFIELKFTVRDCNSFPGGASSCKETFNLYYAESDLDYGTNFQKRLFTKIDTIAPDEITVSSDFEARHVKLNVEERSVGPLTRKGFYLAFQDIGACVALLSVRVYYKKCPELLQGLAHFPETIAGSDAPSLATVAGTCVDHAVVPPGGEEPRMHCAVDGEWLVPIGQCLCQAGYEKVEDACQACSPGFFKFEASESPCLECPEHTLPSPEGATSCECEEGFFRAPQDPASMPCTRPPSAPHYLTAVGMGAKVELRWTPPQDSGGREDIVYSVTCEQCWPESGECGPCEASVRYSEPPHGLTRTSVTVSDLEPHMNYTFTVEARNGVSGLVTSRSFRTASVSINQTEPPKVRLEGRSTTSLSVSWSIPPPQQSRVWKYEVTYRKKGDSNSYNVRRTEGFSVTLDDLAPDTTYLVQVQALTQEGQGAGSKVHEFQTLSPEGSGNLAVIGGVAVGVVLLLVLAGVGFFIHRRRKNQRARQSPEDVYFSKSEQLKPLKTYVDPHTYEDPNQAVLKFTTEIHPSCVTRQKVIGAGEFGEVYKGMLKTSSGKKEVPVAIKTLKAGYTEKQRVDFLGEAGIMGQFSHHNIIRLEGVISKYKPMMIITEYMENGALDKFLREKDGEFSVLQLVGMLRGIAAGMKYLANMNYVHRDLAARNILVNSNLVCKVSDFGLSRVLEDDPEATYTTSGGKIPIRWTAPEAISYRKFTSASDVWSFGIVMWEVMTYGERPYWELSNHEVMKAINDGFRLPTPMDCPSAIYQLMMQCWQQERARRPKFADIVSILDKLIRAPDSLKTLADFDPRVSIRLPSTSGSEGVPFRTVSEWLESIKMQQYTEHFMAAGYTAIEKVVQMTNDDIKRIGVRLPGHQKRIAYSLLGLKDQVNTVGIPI"}, "[14]": {"biological_target": "CSF1R (Homo sapiens, UniProt P07333)"}, "[15]": {"biological_target": "ACVR2A (Homo sapiens, UniProt P27037)", "sequence (P27037 whole entry)": "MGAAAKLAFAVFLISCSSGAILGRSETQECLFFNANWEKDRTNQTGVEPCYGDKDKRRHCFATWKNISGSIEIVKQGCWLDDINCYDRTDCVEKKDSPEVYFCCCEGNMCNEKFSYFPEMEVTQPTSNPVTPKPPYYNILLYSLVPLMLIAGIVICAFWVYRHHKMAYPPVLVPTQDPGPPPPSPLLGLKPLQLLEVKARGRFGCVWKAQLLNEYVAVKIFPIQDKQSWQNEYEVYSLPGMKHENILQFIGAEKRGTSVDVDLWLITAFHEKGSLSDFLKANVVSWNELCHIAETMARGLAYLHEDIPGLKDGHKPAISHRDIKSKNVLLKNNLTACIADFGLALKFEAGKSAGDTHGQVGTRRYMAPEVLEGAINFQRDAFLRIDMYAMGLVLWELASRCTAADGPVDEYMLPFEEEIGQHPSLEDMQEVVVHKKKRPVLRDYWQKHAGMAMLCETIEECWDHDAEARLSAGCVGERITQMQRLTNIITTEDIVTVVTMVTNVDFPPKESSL"}, "[16]": {"biological_target": "INSR (Homo sapiens, UniProt P06213)"}, "[17]": {"biological_target": "ROS (Homo sapiens, UniProt P08922)"}, "[18]": {"biological_target": "MAPKAPK5 (Homo sapiens, UniProt Q8IW41)"}, "[19]": {"biological_target": "MINK1 (Homo sapiens, UniProt Q8N4C8)"}, "[20]": {"biological_target": "CDK11B (Homo sapiens, UniProt P21127)", "sequence (P21127 whole entry)": "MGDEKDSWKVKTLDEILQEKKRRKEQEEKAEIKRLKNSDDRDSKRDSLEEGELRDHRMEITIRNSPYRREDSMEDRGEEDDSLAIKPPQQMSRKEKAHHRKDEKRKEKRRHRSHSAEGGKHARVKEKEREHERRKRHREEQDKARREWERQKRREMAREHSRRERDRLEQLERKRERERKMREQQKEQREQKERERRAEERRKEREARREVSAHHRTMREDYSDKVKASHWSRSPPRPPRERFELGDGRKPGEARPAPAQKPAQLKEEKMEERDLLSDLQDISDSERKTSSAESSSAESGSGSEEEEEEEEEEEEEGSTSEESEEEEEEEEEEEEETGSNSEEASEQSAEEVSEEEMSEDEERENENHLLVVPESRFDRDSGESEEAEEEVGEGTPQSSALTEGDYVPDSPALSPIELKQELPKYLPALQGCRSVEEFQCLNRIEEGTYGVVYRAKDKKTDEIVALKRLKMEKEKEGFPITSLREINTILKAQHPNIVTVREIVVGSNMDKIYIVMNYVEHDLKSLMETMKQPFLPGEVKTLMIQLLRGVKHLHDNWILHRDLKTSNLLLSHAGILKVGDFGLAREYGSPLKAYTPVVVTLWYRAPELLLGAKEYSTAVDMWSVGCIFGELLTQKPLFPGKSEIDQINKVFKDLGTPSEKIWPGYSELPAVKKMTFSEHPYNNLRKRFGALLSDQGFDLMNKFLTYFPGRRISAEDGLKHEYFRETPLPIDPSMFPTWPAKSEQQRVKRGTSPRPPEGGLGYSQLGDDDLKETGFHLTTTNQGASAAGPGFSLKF"}, "[21]": {"biological_target": "PKCe (Homo sapiens, UniProt Q02156)"}, "[22]": {"biological_target": "CSK (Homo sapiens, UniProt P41240)"}, "[23]": {"biological_target": "CDK2/CycD1 (Homo sapiens, UniProt P24941)"}, "[24]": {"biological_target": "IGF1R (Homo sapiens, UniProt P08069)"}, "[25]": {"biological_target": "PIM2 (Homo sapiens, UniProt Q9P1W9)"}, "[26]": {"biological_target": "NEK4 (Homo sapiens, UniProt P51957)"}, "[27]": {"biological_target": "AKT1 (Homo sapiens, UniProt P31749)", "sequence (P31749 whole entry)": "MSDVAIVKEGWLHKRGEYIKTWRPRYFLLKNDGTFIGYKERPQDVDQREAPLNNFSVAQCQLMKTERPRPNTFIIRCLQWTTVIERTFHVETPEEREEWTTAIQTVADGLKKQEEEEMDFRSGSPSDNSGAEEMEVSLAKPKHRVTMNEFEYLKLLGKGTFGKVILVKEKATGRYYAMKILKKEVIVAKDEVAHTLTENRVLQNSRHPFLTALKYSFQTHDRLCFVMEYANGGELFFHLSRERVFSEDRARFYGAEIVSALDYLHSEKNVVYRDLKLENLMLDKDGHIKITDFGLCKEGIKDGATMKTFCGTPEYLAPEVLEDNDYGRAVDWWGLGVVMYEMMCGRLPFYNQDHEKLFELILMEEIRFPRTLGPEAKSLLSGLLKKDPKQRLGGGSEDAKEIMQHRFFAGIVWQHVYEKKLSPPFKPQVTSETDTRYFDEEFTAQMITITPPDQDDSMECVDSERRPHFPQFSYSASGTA"}, "[28]": {"biological_target": "RON (Homo sapiens, UniProt Q04912)"}, "[29]": {"biological_target": "ERK1 (Homo sapiens, UniProt P27361)"}, "[30]": {"biological_target": "BUB1B (Homo sapiens, UniProt O60566)"}, "[31]": {"biological_target": "IKKe (Homo sapiens, UniProt Q14164)"}}}
{"smiles": "O=C1NCCCCCNc2nc(c3ccccc3n2)Nc2cc1[nH]n2", "note": "[21c, (Z)-3^1H-2,5,11-triaza-1(4,2)-quinazolina-3(3,5)-pyrazolacycloundecaphan-4-one]", "values": [{"measurement": "21c Remaining activity, percent of control [%]", "setting": "[1]", "result": 84.2, "unit": "%"}, {"measurement": "21c Remaining activity, percent of control [%]", "setting": "[2]", "result": 67.3, "unit": "%"}, {"measurement": "21c Remaining activity, percent of control [%]", "setting": "[3]", "result": 83.6, "unit": "%"}, {"measurement": "21c Remaining activity, percent of control [%]", "setting": "[4]", "result": 109.8, "unit": "%"}, {"measurement": "21c Remaining activity, percent of control [%]", "setting": "[5]", "result": 110.6, "unit": "%"}, {"measurement": "21c Remaining activity, percent of control [%]", "setting": "[6]", "result": 92.7, "unit": "%"}, {"measurement": "21c Remaining activity, percent of control [%]", "setting": "[7]", "result": 78.1, "unit": "%"}, {"measurement": "21c Remaining activity, percent of control [%]", "setting": "[8]", "result": 96.9, "unit": "%"}, {"measurement": "21c Remaining activity, percent of control [%]", "setting": "[9]", "result": 111.9, "unit": "%"}, {"measurement": "21c Remaining activity, percent of control [%]", "setting": "[10]", "result": 97.4, "unit": "%"}, {"measurement": "21c Remaining activity, percent of control [%]", "setting": "[11]", "result": 84.4, "unit": "%"}, {"measurement": "21c Remaining activity, percent of control [%]", "setting": "[12]", "result": 91.9, "unit": "%"}, {"measurement": "21c Remaining activity, percent of control [%]", "setting": "[13]", "result": 82.5, "unit": "%"}, {"measurement": "21c Remaining activity, percent of control [%]", "setting": "[14]", "result": 90.9, "unit": "%"}, {"measurement": "21c Remaining activity, percent of control [%]", "setting": "[15]", "result": 95.3, "unit": "%"}, {"measurement": "21c Remaining activity, percent of control [%]", "setting": "[16]", "result": 98.0, "unit": "%"}, {"measurement": "21c Remaining activity, percent of control [%]", "setting": "[17]", "result": 109.6, "unit": "%"}, {"measurement": "21c Remaining activity, percent of control [%]", "setting": "[18]", "result": 110.4, "unit": "%"}, {"measurement": "21c Remaining activity, percent of control [%]", "setting": "[19]", "result": 70.0, "unit": "%"}, {"measurement": "21c Remaining activity, percent of control [%]", "setting": "[20]", "result": 91.2, "unit": "%"}, {"measurement": "21c Remaining activity, percent of control [%]", "setting": "[21]", "result": 86.5, "unit": "%"}, {"measurement": "21c Remaining activity, percent of control [%]", "setting": "[22]", "result": 73.5, "unit": "%"}, {"measurement": "21c Remaining activity, percent of control [%]", "setting": "[23]", "result": 121.3, "unit": "%"}, {"measurement": "21c Remaining activity, percent of control [%]", "setting": "[24]", "result": 102.9, "unit": "%"}, {"measurement": "21c Remaining activity, percent of control [%]", "setting": "[25]", "result": 103.1, "unit": "%"}, {"measurement": "21c Remaining activity, percent of control [%]", "setting": "[26]", "result": 103.8, "unit": "%"}, {"measurement": "21c Remaining activity, percent of control [%]", "setting": "[27]", "result": 92.1, "unit": "%"}, {"measurement": "21c Remaining activity, percent of control [%]", "setting": "[28]", "result": 94.5, "unit": "%"}, {"measurement": "21c Remaining activity, percent of control [%]", "setting": "[29]", "result": 85.8, "unit": "%"}, {"measurement": "21c Remaining activity, percent of control [%]", "setting": "[30]", "result": 101.6, "unit": "%"}, {"measurement": "21c Remaining activity, percent of control [%]", "setting": "[31]", "result": 103.6, "unit": "%"}]}
